Measurements published in patent US10160747B2, “Compounds and methods for kinase modulation, and indications therefor” (Plexxikon Inc., priority 2016, dated 2018).
pIC50: −log10 of the molar value.

Key:
Format in all cases: biochemical
FLT3-ITD = molecular target: T1, FLT3-ITD (Homo sapiens, UniProt P36888); test: FLT3-ITD recombinant enzyme kinase assay (AlphaScreen); settings: 8 pt; read-out: FLT3_ITD 8 pt: IC50
T1 sequence (P36888 1-993): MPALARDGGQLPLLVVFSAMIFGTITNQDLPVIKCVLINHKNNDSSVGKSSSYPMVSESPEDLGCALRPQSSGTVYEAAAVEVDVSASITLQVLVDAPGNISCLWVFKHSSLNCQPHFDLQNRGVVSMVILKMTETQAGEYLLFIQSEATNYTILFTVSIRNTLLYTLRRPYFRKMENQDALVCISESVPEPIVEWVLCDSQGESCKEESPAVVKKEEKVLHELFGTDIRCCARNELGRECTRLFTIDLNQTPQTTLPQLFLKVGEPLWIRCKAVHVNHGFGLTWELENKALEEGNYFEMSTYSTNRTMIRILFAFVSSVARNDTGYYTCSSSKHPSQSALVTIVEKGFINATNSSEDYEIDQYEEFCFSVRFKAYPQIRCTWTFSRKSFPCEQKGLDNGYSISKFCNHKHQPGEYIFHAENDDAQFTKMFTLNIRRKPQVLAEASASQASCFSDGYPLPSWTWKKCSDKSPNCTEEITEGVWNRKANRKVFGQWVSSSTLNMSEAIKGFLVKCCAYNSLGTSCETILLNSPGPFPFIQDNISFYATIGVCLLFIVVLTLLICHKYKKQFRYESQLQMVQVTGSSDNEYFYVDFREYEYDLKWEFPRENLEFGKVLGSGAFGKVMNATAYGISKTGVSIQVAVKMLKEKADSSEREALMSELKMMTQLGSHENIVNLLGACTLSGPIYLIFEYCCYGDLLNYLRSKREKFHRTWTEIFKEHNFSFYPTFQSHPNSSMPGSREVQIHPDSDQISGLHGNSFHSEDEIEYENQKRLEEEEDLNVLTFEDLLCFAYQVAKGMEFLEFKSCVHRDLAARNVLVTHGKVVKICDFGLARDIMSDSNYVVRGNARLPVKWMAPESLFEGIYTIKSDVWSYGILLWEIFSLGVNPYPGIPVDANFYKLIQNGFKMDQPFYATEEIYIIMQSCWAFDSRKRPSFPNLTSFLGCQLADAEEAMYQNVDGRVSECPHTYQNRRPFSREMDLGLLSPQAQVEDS
In short: (§1)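 Recombinant enzyme phosphorylated biotinylated poly(Glu4-Tyr) peptide (30 nM final) with ATP at 10 μM for FLT3-ITD and FLT3-D835Y or 100 μM for c-KIT. Phosphopeptide was detected by AlphaScreen with streptavidin donor and anti-phosphotyrosine (PY20) acceptor beads (10 μg/mL), read at 580 nm, for IC50 determination.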

FLT3-D835Y = molecular target: T2, FLT3-D835Y (Homo sapiens, UniProt P36888, D835Y); test: FLT3-D835Y recombinant enzyme kinase assay (AlphaScreen); settings: 8 pt, GMean
T2 construct: purchased Invitrogen PV3967
T2 sequence (P36888 27-993 D835Y): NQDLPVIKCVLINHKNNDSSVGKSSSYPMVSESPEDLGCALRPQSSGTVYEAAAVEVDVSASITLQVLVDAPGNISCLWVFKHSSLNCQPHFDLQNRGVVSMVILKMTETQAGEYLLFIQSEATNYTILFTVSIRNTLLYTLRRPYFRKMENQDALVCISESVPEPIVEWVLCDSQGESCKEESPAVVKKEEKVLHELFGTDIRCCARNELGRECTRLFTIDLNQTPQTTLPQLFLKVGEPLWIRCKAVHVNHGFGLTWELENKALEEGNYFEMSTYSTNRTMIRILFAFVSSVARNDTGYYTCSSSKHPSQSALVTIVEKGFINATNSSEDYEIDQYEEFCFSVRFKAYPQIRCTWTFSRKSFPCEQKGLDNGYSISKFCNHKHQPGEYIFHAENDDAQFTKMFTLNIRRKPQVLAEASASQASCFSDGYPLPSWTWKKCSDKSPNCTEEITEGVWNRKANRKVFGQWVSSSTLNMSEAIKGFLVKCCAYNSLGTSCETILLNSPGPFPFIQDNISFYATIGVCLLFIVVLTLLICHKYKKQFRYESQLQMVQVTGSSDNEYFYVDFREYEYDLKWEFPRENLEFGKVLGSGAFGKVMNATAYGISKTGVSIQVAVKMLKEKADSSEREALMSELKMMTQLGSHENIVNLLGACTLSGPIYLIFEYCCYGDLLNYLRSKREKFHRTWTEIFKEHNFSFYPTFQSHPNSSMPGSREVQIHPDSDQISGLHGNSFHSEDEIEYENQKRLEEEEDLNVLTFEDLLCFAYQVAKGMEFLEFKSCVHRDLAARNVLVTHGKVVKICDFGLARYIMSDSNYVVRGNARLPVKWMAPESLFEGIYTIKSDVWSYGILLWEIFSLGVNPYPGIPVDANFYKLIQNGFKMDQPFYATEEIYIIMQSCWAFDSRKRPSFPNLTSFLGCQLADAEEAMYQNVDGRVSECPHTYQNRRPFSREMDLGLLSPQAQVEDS
In short: as §1

c-KIT = molecular target: T3, c-KIT (Homo sapiens, UniProt P10721); test: c-KIT recombinant enzyme kinase assay (AlphaScreen); settings: 100 ATP, 8 pt
T3 construct: purchased Millipore 14-559K
T3 sequence (P10721 26-976): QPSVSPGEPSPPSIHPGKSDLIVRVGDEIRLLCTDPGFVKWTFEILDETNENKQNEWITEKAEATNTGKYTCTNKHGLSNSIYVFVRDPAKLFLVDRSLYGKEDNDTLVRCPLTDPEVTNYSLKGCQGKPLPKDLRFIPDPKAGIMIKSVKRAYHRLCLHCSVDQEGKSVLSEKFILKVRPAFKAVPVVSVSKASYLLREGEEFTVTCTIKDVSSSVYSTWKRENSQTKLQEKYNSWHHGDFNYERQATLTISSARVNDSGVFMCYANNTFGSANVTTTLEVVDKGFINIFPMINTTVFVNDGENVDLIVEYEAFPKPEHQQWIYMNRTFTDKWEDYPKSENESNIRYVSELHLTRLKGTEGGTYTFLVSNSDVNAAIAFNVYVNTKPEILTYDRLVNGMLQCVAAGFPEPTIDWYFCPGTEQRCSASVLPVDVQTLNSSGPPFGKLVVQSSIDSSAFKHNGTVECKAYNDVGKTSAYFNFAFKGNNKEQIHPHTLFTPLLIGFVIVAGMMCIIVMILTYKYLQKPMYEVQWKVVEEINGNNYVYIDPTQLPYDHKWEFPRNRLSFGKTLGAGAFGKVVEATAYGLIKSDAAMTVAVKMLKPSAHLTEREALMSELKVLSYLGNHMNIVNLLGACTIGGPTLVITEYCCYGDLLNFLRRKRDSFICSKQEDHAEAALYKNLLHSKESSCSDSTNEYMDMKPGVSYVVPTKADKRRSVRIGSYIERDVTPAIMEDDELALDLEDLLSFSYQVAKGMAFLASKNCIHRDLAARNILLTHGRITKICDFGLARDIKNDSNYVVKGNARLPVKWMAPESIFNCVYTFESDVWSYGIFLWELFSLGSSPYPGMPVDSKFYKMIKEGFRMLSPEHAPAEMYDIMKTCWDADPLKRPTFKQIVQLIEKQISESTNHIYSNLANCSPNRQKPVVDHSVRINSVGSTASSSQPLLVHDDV
In short: as §1

Measured: pIC50

CCOc1n[nH]c2ncc(-c3ccc(CC(=O)Nc4cnc(C)c(C(F)(F)F)c4)cc3)cc12 [Compound P-0217, 2-[4-(3-ethoxy-1H-pyrazolo[3,4-b]pyridin-5-yl)phenyl]-N-[6-methyl-5-(trifluoromethyl)-3-pyridyl]acetamide]
5.00 to 10.00: all assays above

COCCn1cc(Nc2ncc(-c3ccc(CC(=O)Nc4cc(C(F)(F)F)ccn4)cc3)cn2)cn1 [Compound P-0222, 2-[4-[2-[[1-(2-methoxyethyl)pyrazol-4-yl]amino]pyrimidin-5-yl]phenyl]-N-[4-(trifluoromethyl)-2-pyridyl]acetamide]
5.00 to 10.00: all assays above

COc1ncc(NC(=O)Cc2ccc(-c3cnc(Nc4cnn(C5CC5)c4)nc3)cc2F)cc1C(F)(F)F [Compound P-0241, 2-[4-[2-[(1-cyclopropylpyrazol-4-yl)amino]pyrimidin-5-yl]-2-fluoro-phenyl]-N-[6-methoxy-5-(trifluoromethyl)-3-pyridyl]acetamide]
5.00 to 10.00: all assays above

O=C(Cc1ccc(-c2cnc(Nc3cnn(C4CC4)c3)nc2)cc1)Nc1cc(C(F)(F)F)ccn1 [Compound P-0237, 2-[4-[2-[(1-cyclopropylpyrazol-4-yl)amino]pyrimidin-5-yl]phenyl]-N-[4-(trifluoromethyl)-2-pyridyl]acetamide]
5.00 to 10.00: all assays above

CCn1cc(Nc2ncc(-c3ccc(CC(=O)Nc4ccc(C(F)(F)F)cn4)c(F)c3)cn2)cn1 [Compound P-0256, 2-[4-[2-[(1-ethylpyrazol-4-yl)amino]pyrimidin-5-yl]-2-fluoro-phenyl]-N-[5-(trifluoromethyl)-2-pyridyl]acetamide]
5.00 to 10.00: all assays above

CCn1cc(Nc2ncc(-c3ccc(CC(=O)Nc4cnc(OC)c(C(F)(F)F)c4)c(F)c3)cn2)cn1 [Compound P-0259, 2-[4-[2-[(1-ethylpyrazol-4-yl)amino]pyrimidin-5-yl]-2-fluoro-phenyl]-N-[6-methoxy-5-(trifluoromethyl)-3-pyridyl]acetamide]
5.00 to 10.00: all assays above

CCn1cc(Nc2ncc(-c3ccc(CC(=O)Nc4ccc(C(F)(F)F)nc4)cc3)cn2)cn1 [Compound P-0252, 2-[4-[2-[(1-ethylpyrazol-4-yl)amino]pyrimidin-5-yl]phenyl]-N-[6-(trifluoromethyl)-3-pyridyl]acetamide]
5.00 to 10.00: all assays above

Cc1ncc(NC(=O)Cc2ccc(-c3cnc(Nc4cnn(C)c4C)nc3)cc2)cc1C(F)(F)F [Compound P-0229, 2-[4-[2-[(1,5-dimethylpyrazol-4-yl)amino]pyrimidin-5-yl]phenyl]-N-[6-methyl-5-(trifluoromethyl)-3-pyridyl]acetamide]
5.00 to 10.00: all assays above

O=C(Cc1ccc(-c2cnc(Nc3cnn(C4CC4)c3)nc2)cc1)Nc1cncc(C(F)(F)F)c1 [Compound P-0231, 2-[4-[2-[(1-cyclopropylpyrazol-4-yl)amino]pyrimidin-5-yl]phenyl]-N-[5-(trifluoromethyl)-3-pyridyl]acetamide]
5.00 to 10.00: all assays above

CCn1cc(Nc2ncc(-c3ccc(CC(=O)Nc4cnc(C)c(C(F)(F)F)c4)cc3)cn2)cn1 [Compound P-0254, 2-[4-[2-[(1-ethylpyrazol-4-yl)amino]pyrimidin-5-yl]phenyl]-N-[6-methyl-5-(trifluoromethyl)-3-pyridyl]acetamide]
5.00 to 10.00: all assays above

O=C(Cc1ccc(-c2cnc(Nc3cnn(C(F)F)c3)nc2)cc1)Nc1cc(C(F)(F)F)ccn1 [Compound P-0023, 2-[4-[2-[[1-(difluoromethyl)pyrazol-4-yl]amino]pyrimidin-5-yl]phenyl]-N-[4-(trifluoromethyl)-2-pyridyl]acetamide]
5.00 to 10.00: all assays above

COc1ncc(NC(=O)Cc2ccc(-c3cnc4[nH]nc(N)c4c3)cc2)cc1C(F)(F)F [Compound P-0216, 2-(4-(3-amino-1H-pyrazolo[3,4-b]pyridin-5-yl)phenyl)-N-(6-methoxy-5-(trifluoromethyl)pyridin-3-yl)acetamide]
5.00 to 10.00: all assays above

Cn1cnc(Nc2ncc(-c3ccc(CC(=O)Nc4cc(C(F)(F)F)ccn4)cc3F)cn2)c1 [Compound P-0018, 2-[3-fluoro-4-[2-[(1-methylimidazol-4-yl)amino]pyrimidin-5-yl]phenyl]-N-[4-(trifluoromethyl)-2-pyridyl]acetamide]
5.00 to 10.00: all assays above

CCn1cc(Nc2ncc(-c3ccc(CC(=O)Nc4ccc(C(F)(F)F)nc4)c(F)c3)cn2)cn1 [Compound P-0257, 2-[4-[2-[(1-ethylpyrazol-4-yl)amino]pyrimidin-5-yl]-2-fluoro-phenyl]-N-[6-(trifluoromethyl)-3-pyridyl]acetamide]
5.00 to 10.00: all assays above

Cn1cnc(Nc2ncc(-c3ccc(CC(=O)Nc4cc(C(F)(F)F)ccn4)cc3)cn2)c1 [Compound P-0022, 2-[4-[2-[(1-methylimidazol-4-yl)amino]pyrimidin-5-yl]phenyl]-N-[4-(trifluoromethyl)-2-pyridyl]acetamide]
5.00 to 10.00: all assays above

COCCn1cc(Nc2ncc(-c3ccc(CC(=O)Nc4ccc(C(F)(F)F)cn4)cc3)cn2)cn1 [Compound P-0274, 2-[4-[2-[[1-(2-methoxyethyl)pyrazol-4-yl]amino]pyrimidin-5-yl]phenyl]-N-[5-(trifluoromethyl)-2-pyridyl]acetamide]
5.00 to 10.00: all assays above

CCn1cc(Nc2ncc(-c3ccc(CC(=O)Nc4cnc(OC)c(C(F)(F)F)c4)cc3)cn2)cn1 [Compound P-0253, 2-[4-[2-[(1-ethylpyrazol-4-yl)amino]pyrimidin-5-yl]phenyl]-N-[6-methoxy-5-(trifluoromethyl)-3-pyridyl]acetamide]
5.00 to 10.00: all assays above

CCn1cc(Nc2ncc(-c3ccc(CC(=O)Nc4cncc(C(F)(F)F)c4)c(F)c3)cn2)cn1 [Compound P-0258, 2-[4-[2-[(1-ethylpyrazol-4-yl)amino]pyrimidin-5-yl]-2-fluoro-phenyl]-N-[5-(trifluoromethyl)-3-pyridyl]acetamide]
5.00 to 10.00: all assays above
